According to patent US20090042883A1, “ANTITUMOR AGENT” (KYOWA HAKKOKOGYO CO., priority 2005, published 2009):

What was measured:
Assay type in all cases: cell-based
[1] = test system: human multiple myeloma NCI-H929 cells; test: Growth inhibition test on human multiple myeloma NCI-H929 cells (WST-1, % viability); details: test compound 10 μmol/L, cells without test compound = 100%
Description: (§1) Ten thousand cells of human multiple myeloma NCI-H929 were inoculated into each well of a 96-well microplate (manufactured by Nunc Corp.), and using RPMI medium (culture medium) containing 10% FCS, preculturing was performed in a 5% carbon dioxide incubator at 37° C. for 24 hours. A DMSO solution of each test compound prepared in a concentration of 10 mmol/L was diluted with the culture medium to a final concentration of 10 μmol/L, and the diluted solution was added to each well. The individual wells were further cultured in the 5% carbon dioxide incubator at 37° C. for 72 hours. After completion of the culturing, 10 μL of WST-1 labeled mixture (manufactured by Roche Diagnostic Corp.) was added to each well, and culturing was performed in the 5% carbon dioxide incubator at 37° C. for 2 hours. Using a microplate spectrophotometer (SpectraMax 340PC384; manufactured by Nihon Molecular Devices), the absorbance of each well was measured at 450 nm and 655 nm. The value obtained by subtracting the absorbance at 450 nm from the absorbance at 655 nm (absorbance difference) was calculated for each well. The value for cells not incorporated with a test compound was designated as 100%, and the value at a well not containing cells was designated as 0%. By comparing these values with the absorbance difference obtained at the well in which each test compound was added, the cell viability (% viability) after treatment with the test compound was calculated.

[2] = test system: human prostate cancer 22Rv1 cells; test: Growth inhibition test on human prostate cancer 22Rv1 cells (WST-1, % viability); details: test compound 10 μmol/L, 72 hours, cells without test compound = 100%
Description: as §1, with “Five” for “Ten”, “prostate cancer 22Rv1” for “multiple myeloma NCI-H929”, “RPMI1640” for “RPMI”, “(Model 550;” for “(SpectraMax 340PC384;”, “Bio-Rad),” for “Nihon Molecular Devices),”

[3] = test system: human renal cancer OS-RC-2 cells; test: Growth inhibition test on human renal cancer OS-RC-2 cells (WST-1, % viability); details: test compound 10 μmol/L, 72 hours, cells without test compound = 100%
Description: as §1, with “One” for “Ten”, “renal cancer OS-RC-2” for “multiple myeloma NCI-H929”, “RPMI1640” for “RPMI”, “(Model 550;” for “(SpectraMax 340PC384;”, “Bio-Rad),” for “Nihon Molecular Devices),”

[4] = test system: human chronic myelocytic leukemia K562 cells; test: Growth inhibition test on human chronic myelocytic leukemia K562 cells (WST-1, % viability); details: test compound 10 μmol/L, 72 hours, cells without test compound = 100%
Description: as §1, with “One” for “Ten”, “chronic myelocytic leukemia K562” for “multiple myeloma NCI-H929”, “RPMI1640” for “RPMI”, “fetal calf serum (FCS),” for “FCS,”, “dimethyl sulfoxide (DMSO)” for “DMSO”, “WST-1 {4-[3-(4-Iodophenyl)-2-(4-nitrophenyl)-2H-5-tetrazolio]-1,3-benzene disulfonate}” for “WST-1”

Compound: CCc1c(O)cc(O)c(C(=O)c2ccc(OCCN3CCOCC3)c(OC)c2)c1CC(=O)N(CCOC)CCOC.Cl [Compound 139]
- Viability of tumor cells (% viability), Human multiple myeloma NCI-H929 cells [1]: 0%
- Viability of tumor cells (% viability), Human prostate cancer 22Rv1 cells [2]: 5%
- Viability of tumor cells (% viability), Human renal cancer OS-RC-2 cells [3]: 21%
- Viability of tumor cells (% viability), Human chronic myelocytic leukemia K562 cells [4]: 4%

Compound: CCc1c(O)cc(O)c(C(=O)c2ccc(C(F)(F)F)cc2)c1CC(=O)N(CCO)CCOC [Compound 144]
- Viability of tumor cells (% viability), Human multiple myeloma NCI-H929 cells [1]: 0%
- Viability of tumor cells (% viability), Human prostate cancer 22Rv1 cells [2]: 5%
- Viability of tumor cells (% viability), Human renal cancer OS-RC-2 cells [3]: 16%
- Viability of tumor cells (% viability), Human chronic myelocytic leukemia K562 cells [4]: 4%

Compound: CCc1c(O)cc(O)c(C(=O)c2ccc(OCCCN3CCOCC3)c(OC)c2)c1CC(=O)N(CCOC)CCOC [Compound 149]
- Viability of tumor cells (% viability), Human multiple myeloma NCI-H929 cells [1]: 0%
- Viability of tumor cells (% viability), Human prostate cancer 22Rv1 cells [2]: 4%
- Viability of tumor cells (% viability), Human renal cancer OS-RC-2 cells [3]: 20%
- Viability of tumor cells (% viability), Human chronic myelocytic leukemia K562 cells [4]: 4%

Compound: CCc1c(O)cc(O)c(C(=O)c2ccsc2)c1CC(=O)N(CCO)CCOC [Compound 151]
- Viability of tumor cells (% viability), Human multiple myeloma NCI-H929 cells [1]: 0%
- Viability of tumor cells (% viability), Human prostate cancer 22Rv1 cells [2]: 5%
- Viability of tumor cells (% viability), Human renal cancer OS-RC-2 cells [3]: 30%
- Viability of tumor cells (% viability), Human chronic myelocytic leukemia K562 cells [4]: 4%
